We go through 2 compounds from article PMC12888861, “Antibacterial activity of enmetazobactam against Acinetobacter spp.: a molecular dissection of mechanism of action and resistance determinants” (Antimicrobial Agents and Chemotherapy, 2025).

≈ marks a conversion by molar mass, not a printed value. Like-named read-outs stand apart in the source and are kept apart here. Some results are limits rather than exact numbers.

The target of experiment [1] is T1, OXA-23 (Acinetobacter baumannii, UniProt Q9L4P2).
T1 construct: GST (N); made in house; host or cells: Escherichia coli BL21
Nature of the experiment: Jump-dilution dissociation assay (koff, t1/2) with OXA-23. Particulars: jump dilution, accurate koff not determinable. Type of experiment: biochemical. How it is done: (§1) The Michaelis-Menten constant (Km) was determined by fitting the data to the Michaelis-Menten equation, following established protocols ([38]). The kcat (hydrolysis rate constant of the β-lactamase) was obtained by linearization of the kinetic data ([39]). To assess the possible inhibitory capacity of enmetazobactam against the CHDLs of A. baumannii, specific OXA-23 inhibition kinetics assays were performed in a Nanoquant Infinite spectrophotometer (Tecan). […] Also, the dissociation constant (koff), which represents the rate at which the enzyme-inhibitor complex dissociates (i.e., the proportion of the enzyme-inhibitor complex that dissociates per unit of time), was determined through a jump-dilution assay that monitored OXA-23 activity recovery as the enzyme-inhibitor complex dissociated. OXA-23 (1 µM) was preincubated for 30 min at 37°C with excess of inhibitors (50× IC₅₀) to ensure full acyl-enzyme complex formation. Subsequently, the mixture was diluted 1:5,000 to allow gradual complex dissociation. […] Enzymatic activity, reflecting the progressive dissociation of the acyl-enzyme complex, was monitored spectrophotometrically at 490 nm for 8 h. The resulting progress curves were fitted using GraphPad Prism (GraphPad Software, MA, USA) to equation 1 to estimate koff, where V0 is the initial, inhibited enzyme velocity; Vs is the steady-state uninhibited enzyme velocity, and t is time.
(1) P=Vs×t+(V0−Vs)×[1−exp^(−koff × t)]/koff

Experiment [2] deals with carbapenem-resistant CHDL-producing A. baumannii isolates (OXA-23, OXA-24/40, OXA-58). Nature of the experiment: Checkerboard synergy assay (FIC index). Type of experiment: cell-based, Acinetobacter baumannii. Particulars: Acinetobacter baumannii, alone or in presence of the partner. How it is done: Checkerboard assays were performed to assess synergistic interactions between the cefepime/enmetazobactam combination and sulbactam, as well as between enmetazobactam alone and either sulbactam or colistin. […] The assays were conducted with three multidrug-resistant A. baumannii isolates from the Spanish Multicenter Collection, each producing a different OXA-type carbapenemase: OXA-23, OXA-24/40, or OXA-58. The FIC index was calculated and interpreted as follows: FICindex ≤ 0.5, synergy; FICindex > 0.5–4, no synergy; and FICindex > 4, antagonism ([33], [34]).

Experiment [3] concerns Acinetobacter spp. clinical isolates. Nature of the experiment: MBC testing, nine clinical isolates. It counts as cell-based. The conditions noted are these: for MBC relative to MIC: nine clinical isolates, most of the isolates. Here is the method: In order to determine the bactericidal activity of enmetazobactam, MBC testing was carried out by subculturing 100 μL aliquots from wells containing antimicrobial concentrations equal to or greater than the MIC of enmetazobactam onto Mueller-Hinton agar plates. […] The MBCs were evaluated for a total of nine clinical isolates: (i) three CRAB, (ii) three carbapenem-susceptible A. baumannii, and (iii) three A. non-baumannii isolates. The plates were incubated at 37°C for 24 h, and viable colonies were counted.

Experiment [4] has as its target T1, OXA-23. Nature of the experiment: OXA-23 inhibition assay (nitrocefin hydrolysis IC50). Type of experiment: biochemical. How it is done:
as §1

A further experiment addresses PBP3 (Acinetobacter baumannii, UniProt A0ABX6CK25). Nature of the experiment: PBP-binding assay, Bocillin FL competition, membrane preparations. How it is done: (§2) The possible involvement of A. baumannii PBPs as enmetazobactam targets was evaluated. […] The PBP-binding IC50 was determined in membrane preparations from three independent experiments, following previously described protocols ([13]).
(§3) Briefly, A. baumannii cultures were grown in Mueller-Hinton broth at 37°C with shaking at 180 rpm, and 400 mL were collected in late log phase (OD₆₀₀nm= 1), washed, and resuspended in 20 mM KH₂PO₄ and 140 mM NaCl (pH 7.5). After sonication, bacterial membranes were isolated by ultracentrifugation (150,000 g, 30 min). […] The Bocillin FL signal is inversely proportional to the binding capacity of the compounds tested to PBPs ([35]). The PBPs were separated by SDS-PAGE (Bio-Rad) and visualized with Odyssey M Imager (LI-COR). The IC₅₀ values were calculated using Empiria Studio software (LI-COR). The binding affinity was determined by comparing the change of the fluorescence in the presence or absence of the tested sulfones.

A further experiment deals with PBP1b (Acinetobacter baumannii, UniProt A0ABX6CHI7). The description is as above. Particulars: A. baumannii ATCC 19606, read-out: IC50 (binding affinity) PBP1b (converted). Here is the method: as §2, §3
For another experiment, the target named is T2, PBP2 (Acinetobacter baumannii, UniProt D0C8Z9).
T2 construct: endogenous in cells; host or cells: A. baumannii ATCC 19606 membrane fraction
The description is as above. How it is done: as §2, §3

Another experiment deals with PBP1a (Acinetobacter baumannii, UniProt A0ABX6CK30). Described as above. Particulars: A. baumannii ATCC 19606, read-out: IC50 (binding affinity) PBP1a. Here is the method: as §2, §3
[5] abbreviates: checkerboard sulbactam x enmetazobactam, isolate Ab4 (OXA-23).
The mark [6] stands for this setting: checkerboard sulbactam x enmetazobactam, isolate Ab138 (OXA-58).
The mark [7] stands for this setting: checkerboard sulbactam x enmetazobactam, isolate Ab180 (OXA-24/40).
Where [8] appears, read: Acinetobacter, isolate NO-Ab84, A. bereziniae.
The mark [9] stands for this setting: Acinetobacter, isolate NO-Ab88, A. dijkshoorniae.
[10] abbreviates: isolate Ab1, A. baumannii ST 164, ADC-6, OXA-91, non-CHDLs-producing.
Where [11] appears, read: isolate Ab4, A. baumannii ST 2, ADC-30, OXA-66, ISAba1-OXA-23.
Where [12] appears, read: isolate Ab6, A. baumannii ST 2, ADC-30, OXA-66, ISAba1-OXA-23, TEM-12.
[13] abbreviates: isolate Ab9, A. baumannii ST 2, ADC-30, OXA-66, OXA-23, TEM-12.
Setting [14] is: isolate Ab11, A. baumannii ST 239, ADC-2, OXA-51, non-CHDLs-producing.
Setting [15] is: isolate Ab34, A. baumannii ST 2182, ADC-2, OXA-130, non-CHDLs-producing.
The mark [16] stands for this setting: A. baumannii ATCC 19606, read-out: IC50 (binding affinity) PBP3 (converted).

T2 sequence (D0C8Z9 whole entry): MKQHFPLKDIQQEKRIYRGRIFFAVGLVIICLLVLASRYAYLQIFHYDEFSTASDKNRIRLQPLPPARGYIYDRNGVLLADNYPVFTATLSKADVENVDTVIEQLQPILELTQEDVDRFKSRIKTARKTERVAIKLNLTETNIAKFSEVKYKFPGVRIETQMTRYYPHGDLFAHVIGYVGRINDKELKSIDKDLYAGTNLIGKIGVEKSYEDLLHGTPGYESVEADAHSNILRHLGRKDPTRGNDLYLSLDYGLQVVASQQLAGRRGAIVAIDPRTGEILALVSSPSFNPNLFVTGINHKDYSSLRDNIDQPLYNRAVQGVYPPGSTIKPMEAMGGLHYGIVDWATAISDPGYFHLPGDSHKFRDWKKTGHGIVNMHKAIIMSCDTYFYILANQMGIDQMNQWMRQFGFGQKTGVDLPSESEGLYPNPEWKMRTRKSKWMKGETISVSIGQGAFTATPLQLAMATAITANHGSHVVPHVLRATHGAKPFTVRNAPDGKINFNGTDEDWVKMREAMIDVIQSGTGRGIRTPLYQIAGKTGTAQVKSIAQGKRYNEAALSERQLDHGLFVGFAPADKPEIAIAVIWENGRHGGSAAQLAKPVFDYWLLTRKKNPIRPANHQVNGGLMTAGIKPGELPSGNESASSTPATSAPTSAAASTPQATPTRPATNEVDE
Chain of PBP3 (A0ABX6CK25 entry or part of it): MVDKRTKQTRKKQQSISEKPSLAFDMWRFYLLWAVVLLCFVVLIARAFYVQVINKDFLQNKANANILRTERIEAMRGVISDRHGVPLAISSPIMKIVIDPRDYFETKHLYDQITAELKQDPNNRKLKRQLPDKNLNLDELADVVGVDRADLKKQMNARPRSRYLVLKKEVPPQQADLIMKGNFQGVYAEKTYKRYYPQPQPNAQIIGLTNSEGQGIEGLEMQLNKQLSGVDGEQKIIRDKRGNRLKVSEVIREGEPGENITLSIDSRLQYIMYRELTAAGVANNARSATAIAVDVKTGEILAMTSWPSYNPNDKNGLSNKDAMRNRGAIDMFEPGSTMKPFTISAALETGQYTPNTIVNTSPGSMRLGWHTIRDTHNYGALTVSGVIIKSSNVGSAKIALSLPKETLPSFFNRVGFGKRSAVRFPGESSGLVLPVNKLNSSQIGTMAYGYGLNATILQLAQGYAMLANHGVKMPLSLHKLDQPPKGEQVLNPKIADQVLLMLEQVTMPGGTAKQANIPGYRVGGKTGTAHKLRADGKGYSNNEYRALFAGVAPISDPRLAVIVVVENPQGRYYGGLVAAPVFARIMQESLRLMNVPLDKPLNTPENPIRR
T1 sequence (Q9L4P2 18-273): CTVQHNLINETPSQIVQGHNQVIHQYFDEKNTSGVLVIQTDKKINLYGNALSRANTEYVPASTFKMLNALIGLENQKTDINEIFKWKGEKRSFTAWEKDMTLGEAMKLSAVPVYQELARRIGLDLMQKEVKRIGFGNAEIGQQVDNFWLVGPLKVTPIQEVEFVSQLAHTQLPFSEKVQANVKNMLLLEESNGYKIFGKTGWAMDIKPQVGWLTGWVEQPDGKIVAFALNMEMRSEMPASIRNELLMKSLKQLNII
Chain of PBP1a (A0ABX6CK30 entry or part of it): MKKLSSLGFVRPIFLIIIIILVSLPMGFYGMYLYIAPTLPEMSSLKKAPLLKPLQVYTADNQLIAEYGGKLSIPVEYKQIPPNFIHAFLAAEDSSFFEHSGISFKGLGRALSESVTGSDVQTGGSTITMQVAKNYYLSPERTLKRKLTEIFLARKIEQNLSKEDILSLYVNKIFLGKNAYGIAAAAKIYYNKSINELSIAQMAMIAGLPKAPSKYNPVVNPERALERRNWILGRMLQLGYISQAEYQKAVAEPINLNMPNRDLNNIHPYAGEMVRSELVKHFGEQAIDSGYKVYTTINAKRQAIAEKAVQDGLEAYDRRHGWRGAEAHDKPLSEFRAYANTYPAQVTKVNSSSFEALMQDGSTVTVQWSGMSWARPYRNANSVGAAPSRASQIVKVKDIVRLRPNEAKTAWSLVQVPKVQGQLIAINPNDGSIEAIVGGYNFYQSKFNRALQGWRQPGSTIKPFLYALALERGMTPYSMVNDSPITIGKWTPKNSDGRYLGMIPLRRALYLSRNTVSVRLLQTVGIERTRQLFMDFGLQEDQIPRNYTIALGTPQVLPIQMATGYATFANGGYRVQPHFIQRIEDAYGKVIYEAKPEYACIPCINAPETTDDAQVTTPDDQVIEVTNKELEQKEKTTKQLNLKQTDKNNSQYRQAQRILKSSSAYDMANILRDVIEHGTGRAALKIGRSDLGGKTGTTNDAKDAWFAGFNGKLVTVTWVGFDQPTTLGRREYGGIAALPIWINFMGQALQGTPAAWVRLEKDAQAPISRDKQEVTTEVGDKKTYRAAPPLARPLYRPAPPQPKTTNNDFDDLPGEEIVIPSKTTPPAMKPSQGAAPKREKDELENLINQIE

Take `C[n+]1ccn(C[C@@]2(C)[C@H](C(=O)[O-])N3C(=O)C[C@H]3S2(=O)=O)n1` [enmetazobactam]: the “koff relative to that of durlobactam” value on OXA-23 [1] is reported as > 1,000 fold. Also, the MIC worked out at 64 µg/mL in experiment [2] (checkerboard colistin x enmetazobactam, isolate Ab4 (OXA-23)); 32 µg/mL in experiment [2] (checkerboard colistin x enmetazobactam, isolate Ab138 (OXA-58)); 16 µg/mL in experiment [2] (checkerboard colistin x enmetazobactam, isolate Ab180 (OXA-24/40)); 128 µg/mL in experiment [2] (setting [5]); 32 µg/mL in experiment [2] (setting [6]); 16 µg/mL in experiment [2] (setting [7]). For the same compound, the MBC in experiment [3] (setting [8]) was 2 µg/mL (≈ 6.36 µM); in experiment [3] (setting [9]), 2 µg/mL (≈ 6.36 µM); in experiment [3] (setting [10]), 4 µg/mL (≈ 12.7 µM); in experiment [3] (setting [11]) it was 64 µg/mL (≈ 204 µM); in experiment [3] (setting [12]) it was 64 µg/mL (≈ 204 µM); in experiment [3] (setting [13]), 8 µg/mL (≈ 25.5 µM). Moreover, the MBC turned out to be 16 µg/mL (≈ 50.9 µM) in experiment [3] (setting [14]); 8 µg/mL (≈ 25.5 µM) in experiment [3] (setting [15]); 2 µg/mL (≈ 6.36 µM) in experiment [3] (isolate NO-Ab89, A. pittii). Besides, the “MBC relative to MIC” value in experiment [3] is reported as “the same or up to twofold higher”. In addition, the concentration for half-maximal inhibition (IC50) was 32.4 µM on OXA-23 [4] (OXA-23, nitrocefin hydrolysis, 10 min preincubation at room temperature, read-out: IC50); 13.4 µM on PBP3 (A. baumannii ATCC 19606, listed as Enmetazobactam, read-out: IC50 (binding affinity) PBP3 (converted)); 13.5 µM at PBP3 (setting [16]); more than 204 µM at PBP1b; 11.5 µM at PBP2 (membrane preparations, A. baumannii ATCC 19606, read-out: IC50 (binding affinity) PBP2 (converted)); more than 204 µM at PBP1a.
With `CC1(C)[C@H](C(=O)O)N2C(=O)C[C@H]2S1(=O)=O` [sulbactam], the minimal inhibitory concentration (MIC) in experiment [2] (setting [5]) stood at 16 µg/mL; in experiment [2] (setting [6]), 8 µg/mL; in experiment [2] (setting [7]) it was 2 µg/mL. Moreover, the MBC in experiment [3] (setting [8]) is 1 µg/mL (≈ 4.29 µM); in experiment [3] (setting [9]), 0.5 µg/mL (≈ 2.14 µM); in experiment [3] (setting [10]), 1 µg/mL (≈ 4.29 µM); in experiment [3] (setting [11]), 16 µg/mL (≈ 68.6 µM); in experiment [3] (setting [12]) it was 16 µg/mL (≈ 68.6 µM); in experiment [3] (setting [13]), 4 µg/mL (≈ 17.1 µM). For the same compound, the MBC was 2 µg/mL (≈ 8.57 µM) in experiment [3] (setting [14]); 0.5 µg/mL (≈ 2.14 µM) in experiment [3] (setting [15]); 0.5 µg/mL (≈ 2.14 µM) in experiment [3] (isolate NO-Ab89, A. pittii). The “MBC relative to MIC” value in experiment [3] is “the same or up to twofold higher”. For the same compound, the IC50 against OXA-23 [4] is 29.2 µM; at PBP3 (setting [16]), 9.73 µM; on PBP1b, 9.6 µM; at PBP2 (IC50 (binding affinity) PBP2, membrane preparations, A. baumannii ATCC 19606), more than 274 µM; at PBP1a it was more than 274 µM.

One may read the MIC as the lowest concentration that inhibits growth of the organism. As usually defined, the MBC is the lowest tested concentration that kills the bacteria rather than only halting them. High values mean weaker bactericidal potency, low ones greater bactericidal potency. One may read the IC50 as the midpoint of a concentration-inhibition curve.
